# Measured values reported in patent publication US7049331B2, “1,2,4-thiadiazole derivatives as melanocortin receptor modulators” (Ortho-McNeil Pharmaceutical, Inc., priority 2001, dated 2006).
# Columns and labels:
# [1] = target: T1, melanocortin MC-4 receptor (Homo sapiens, UniProt P32245); assay: Melanocortin MC-4 Receptor Binding Assay (SPA)
# T1 construct: purchased Receptor Biology Inc
# How it was run: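 Membranes bound to WGA SPA beads were incubated 16 h at 25° C with 40 pM ¹²⁵I-NDP-MSH and test compound (1 mM stock in 30% DMSO-HEPES pH 7.4). Nonspecific binding set with 1 μM NDP-MSH or α-MSH; percent inhibition from bound cpm.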
# human sebocytes [2] = assay: Nile red evaluation of lipid accumulation in sebocytes; assay type: cell-based; conditions: for inhibition at 0.4 µM: read-out: % Inh 0.4 μM (lipid accumulation, Nile red); for inhibition at 0.8 µM: read-out: % Inh 0.8 μM (lipid accumulation, Nile red)
# Method: The cells were incubated at 37° C. for 24 hours prior to their use as a feeder layer for sebocytes. Human sebocytes were isolated from Dermatome shavings of postoperative pieces of human skin at 0.4-0.8 mm depths (this part of the skin was previously shown to be enriched in sebaceous glands). […] This medium was changed every 3 days (Phase III). Hormones, mixture of hormones i.e. bovine pituitary extract or compounds to be tested were added to the culture at the beginning of phase III. […] The evaluation of lipid accumulation completed using the Nile red method. This method relies on visualization of neutral lipids by Nile red and quantitation by reading of fluorescence at 535 nm excitation, 580 nm emission using a plate reader. The lipid synthesis was evaluated by radioactive labeling using ^14C acetate and quantified by Bio Rad Phosphoimager (Molecular Imager, FX) using 4.1 Software. […] Quantitation of accumulation/inhibition of neutral lipids in sebocytes was accomplished by Nile red binding assay. Briefly, following exposure of sebocytes to test compounds, the cells were allowed to interact with 1 μM Nile red in Hanks buffered saline solution containing DMSO and Pluronic F127. After 4 hours of incubation, washing and incubation overnight, the fluorescence was read at 535 excitation and 580 emission using a fluorescence plate reader. […] Following the procedure described above, select compounds of the present invention were tested for visual and Nile red evaluation of lipid accumulation, with results as listed in Table 9.
# human sebocytes [3] = assay: Visual observation of lipid granule formation in sebocytes; assay type: cell-based
# Method: Semiconfluent cultures of 3T3 mouse fibroblasts (Swiss Albino mouse, ATCC CCL-92) were treated with mitomycin C (4 μg/ml) for 3 hours, trypsinized and seeded at a density of 2.5×10^5/9.5 cm^2 tissue culture plate in Dulbeccos Minimal Essential Medium (DMEM) containing 10% Colorado Calf Serum, PNC (100U/ml), STM (100 μg/ml), L glutamine (0.3 mg/ml), sodium pyruvate (1 mM) and nonessential amino acids (100 μM). The cells were incubated at 37° C. for 24 hours prior to their use as a feeder layer for sebocytes.
# Human sebocytes were isolated from Dermatome shavings of postoperative pieces of human skin at 0.4–0.8 mm depths (this part of the skin was previously shown to be enriched in sebaceous glands). Shavings so obtained were treated with 1% Dispase in Iscoves medium containing 10% serum for 20 min at 37° C. The tissue was then placed in 0.3% trypsin/1% EDTA in Phosphate Buffered Saline (PBS) for 10 minutes at 37° C. Following this incubation the cells were gently scraped from the tissue in Growth medium (GM) containing DMEM/F12 media mixture (3:1), supplemented with 8% heat inactivated FBS, 2% heat inactivated human serum (HS), 1 mM sodium pyruvate, epidermal growth factor (10 ng/ml), insulin (10 μg/ml), hydrocortisone (0.4 μg/ml) and +/−cholera toxin (100 μg/ml), L-glutamine and antibiotics. Cells so obtained were filtered through nylon mesh ([…]), centrifuged at 750 RPM, re-suspended in GM and counted.
# Resultant cells from the above isolation procedure were plated on the 3T3 feeder layers at 2×10^5/9.5 cm^2 in growth medium and maintained at 37° C. and 5% CO2 for 3 days (Phase I). Following the initial growth period they were transferred to a transition medium (TM) that consisted of DMEM/F12 media supplemented with 1 mM sodium pyruvate, insulin ([…]), transferrin ([…]) and selenium (5.5 μg/ml) (ITS), 2% heat inactivated FBS and 2% heat inactivated human serum as well as +/−cholera toxin (ch.t.) (100 μg/ml), L-glutamine and antibiotics (Phase II). Three days later the cells were changed to differentiation medium (DM), DMEM/F12 supplemented with ITS, 3,3′,5-triido-L-thyronine sodium (3 nM), 1%(v/v) trace element mix and the choice of differentiation agent i.e. bovine pituitary extract (10 μg/ml). This medium was changed every 3 days (Phase III).
# Hormones, mixture of hormones i.e. bovine pituitary extract or compounds to be tested were added to the culture at the beginning of phase III. Two criteria were used to evaluate the effect of these materials on sebaceous cultures: 1) visual observations and 2) evaluation of sebaceous lipid accumulation and synthesis. The evaluation of lipid accumulation completed using the Nile red method. This method relies on visualization of neutral lipids by Nile red and quantitation by reading of fluorescence at 535 nm excitation, 580 nm emission using a plate reader. The lipid synthesis was evaluated by radioactive labeling using ^14C acetate and quantified by Bio Rad Phosphoimager (Molecular Imager, FX) using 4.1 Software.
# Quantitation of accumulation/inhibition of neutral lipids in sebocytes was accomplished by Nile red binding assay. Briefly, following exposure of sebocytes to test compounds, the cells were allowed to interact with 1 μM Nile red in Hanks buffered saline solution containing DMSO and Pluronic F127. After 4 hours of incubation, washing and incubation overnight, the fluorescence was read at 535 excitation and 580 emission using a fluorescence plate reader.
# Following the procedure described above, select compounds of the present invention were tested for visual and Nile red evaluation of lipid accumulation, with results as listed in Table 9.
# Following the procedure described above, select compounds of the present invention were tested for their inhibitory effect on differentiation of human sebocytes. […]
# MC5-R = MC5-R (Homo sapiens, UniProt P33032); assay: MC5-R binding
# rabbit adipocytes = conditions: read-out: EC50 lipolytic activity; cited from earlier work
# rat adipocytes = conditions: read-out: EC50 lipolytic activity; cited from earlier work
# [4] = tested on: isolated human and non-human primate adipocytes; conditions: concentrations as high as 1 μM; cited from earlier work
# [5] = tested on: Male Long-Evans rats, facial nerve compression; assay: In vivo Facial Nerve Compression Model; set-up: species or system rat; conditions: test compounds p.o. 20 mg/kg bid, αMSH s.c. 70 ug/each 48 hr
# Excerpt: The ability of test compound to provide neuro-protective or neuro-regenerative effects was investigated in a facial nerve compression model. Facial nerve motor axons arise exclusively from neurons within the pons in a well-defined nucleus. Facial nerve compression results in retrograde reactions proximal to the lesion site and Wallerian degeneration at its distal part, which causes diminished whisker movement on the lesioned side.
# Male Long-Evans rats (150–180 g) were anesthetized with 3–5% isoflorane for induction and 2% for maintenance during the surgical procedures. The right facial nerve was exposed and compressed with forceps for 30 sec at its exit from the stylomastoid foramen. The left facial nerve was sham-operated and served as an internal control. […] The following morphological abnormalities associated with the functional deficit were observed:
# After recovery from anesthesia, the rats were randomly divided into groups for dosing with vehicle, αMSH or test compound, with 6 animals per group. αMSH (s.c., 70 ug/each 48 hr) was used as a positive control. Test compounds were dosed p.o. at 20 mg/kg bid for 14 days. Restoration of whisker movement was monitored daily after the operation using two criteria:
# (1) frequency of whisker movement on the lesioned side relative to the opposite side (sham-operated) which served as the baseline control
# (2) semi-quantitative measurements (0 to 4+) on strength of the whisker muscles, characterized based on observation of the percentage of moved whiskers, muscle tone of whisker muscles, and the position of the nose. For all observations, the experimental design was blind to the behavioral observer.
# The recovery rate of the whisker movement was expressed as percentage of its own internal control (sham-operated), as listed in Table 8.
# T1 sequence (P32245 whole entry): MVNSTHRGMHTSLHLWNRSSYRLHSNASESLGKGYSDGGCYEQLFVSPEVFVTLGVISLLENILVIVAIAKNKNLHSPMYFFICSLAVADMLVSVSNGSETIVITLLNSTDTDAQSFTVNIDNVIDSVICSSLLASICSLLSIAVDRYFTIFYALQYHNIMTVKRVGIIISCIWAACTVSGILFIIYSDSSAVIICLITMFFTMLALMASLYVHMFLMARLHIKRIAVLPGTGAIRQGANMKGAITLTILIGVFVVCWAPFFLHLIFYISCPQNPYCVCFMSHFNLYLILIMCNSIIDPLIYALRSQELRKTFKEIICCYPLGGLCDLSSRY
# MC5-R, sequence (P33032 whole entry): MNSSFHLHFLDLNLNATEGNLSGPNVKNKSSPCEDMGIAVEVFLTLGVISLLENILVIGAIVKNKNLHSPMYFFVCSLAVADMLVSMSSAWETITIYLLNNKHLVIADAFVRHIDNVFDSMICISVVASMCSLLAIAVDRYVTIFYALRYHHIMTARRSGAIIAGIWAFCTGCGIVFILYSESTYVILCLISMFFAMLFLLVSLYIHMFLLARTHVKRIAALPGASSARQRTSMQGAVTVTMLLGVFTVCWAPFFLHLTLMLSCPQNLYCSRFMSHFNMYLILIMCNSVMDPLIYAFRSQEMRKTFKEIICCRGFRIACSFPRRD
Molecule,IC50 [1] [nM],inhibition at 0.4 µM (human sebocytes [2]) [%],inhibition at 0.8 µM (human sebocytes [2]) [%],Visual* 0.4 μM (inhibition of lipid granule formation) (human sebocytes [3]),Visual* 0.8 μM (inhibition of lipid granule formation) (human sebocytes [3]),IC50 (MC5-R) [nM],EC50 (rabbit adipocytes) [nM],EC50 (rat adipocytes) [nM],effect on lipolysis [4],"Percent Recovery of whisker movement D9 ([5]; D9, % of sham-operated side) [%]",Percent Recovery of whisker movement D10 ([5]; D10) [%],Percent Recovery of whisker movement D11 ([5]; D11) [%],Percent Recovery of whisker movement D12 ([5]; D12) [%],Percent Recovery of whisker movement D13 ([5]; D13) [%],Percent Recovery of whisker movement D14 ([5]; D14) [%]
COc1ccccc1Nc1nc(-c2ccccc2OC)[n+](-c2ccccc2OC)s1 [Compound 76],332,48,88,++ (++ =50%),+++ (+++ = 75%),317,–,–,–,–,–,–,–,–,–
COc1ccccc1-c1nc(Nc2ccccc2Cl)s[n+]1-c1ccccc1OC [Compound 80],378,61,91,++ (++ =50%),++++ (++++ = 100%),138,–,–,–,–,–,–,–,–,–
"ACTH: melanocortin neuropeptide arising from pro-opiomelanocortin (POMC) (SYSMEHFRWGKPVGKKRRPVKVYPNGAEDESAEAFPLEF; Corticotropin; UniProt P01189 138-176, looked up)",–,–,–,–,–,–,16.4,1.34,very little effect on lipolysis,–,–,–,–,–,–
"α-MSH: alpha-melanocyte stimulating hormone peptide, used as a positive control [reference compound]",–,–,–,–,–,–,3.7,–,–,2.0,24.6,60.1,93.8,98.1,100
